According to patent US6897316B2, “Substituted 2-phenyl-4-quinolone-3-carboxylic acid compounds and their use as antitumor agents” (China Medical University, priority 2003, dated 2005):
≈ marks a conversion by molar mass, not a printed value.

How the values were obtained:
[1] = test system: lung cancer cell line (A-549); experiment: Preliminary cytotoxicity screening against lung cancer cell line A-549 (SRB assay); assay type: cell-based, human; details: Homo sapiens, A549; A-549; 50% reduction in absorbance at 562 nm relative to untreated cells, SRB assay; Table 1 (esters VII, acids IX); read-out: ED50 (cytotoxicity against A-549)
Method: (§1) Compounds were assayed for in vitro cytotoxicity in a panel of human tumor cell lines at the School of Pharmacy, University of North Carolina at Chapel Hill, according to procedures described previously [Lee, K. H., Lin, Y. M., Wu, T. S., Zhang, D. C., Yamagishi, T., Hayashi, T., Hall, I. H., Chang, J. J., Wu, R. Y., Yang, T. H. The cytotoxic principles of Prunella vulgaris, Psychotria serpens, and Hyptis capitata: Ursolic acid and related derivatives. Planta Med. 1988, 54, 308-11; Boyd, M. R. Status of the National Cancer Institute preclinical antitumor drug discovery screen: implications for selection of new agents for clinical trial. Devita, V. T., Jr. Hellman, S., Rosenberg, S. A., Eds, J. B. Cancer: Principles and Practice of Oncology Update, 1989, 3: pp1-12, Lippincoft: Philadephia; Monks, A., Scudiero, D., Skehan, P., Shoemaker, R., Paull, K., Vistica, D., Hose, C., Langley, J., Cronise, P., Vaigro-Wolff, A., Gray-Goodrich, M., Campbell, H., Mayo, J., Boyd, M. Feasibility of a high-flux anticancer drug screen using a diverse panel of cultured human tumor cell lines. J. Natl. Cancer Inst. 1991, 83, 757-66.] The cell lines included human ovarian cancer (1A9), ileocecal carcinoma (HCT-8), lung carcinoma (A-549), glioblastoma (U-87-MG), bone (HOS), epidermoid carcinoma of the naynx (KB), P-gp-expressing epidermoid carcinoma of the nasopharynx (KB-VIN), and melanoma (SKMEL-2) cell line. The cytotoxic effects of each compound were obtained as EC50 values, which represent the molar drug concentrations required to cause 50% inhibition.
Preliminary screening of antitumor activity was based on the cytotoxicity tested in human long cancer (A-549) cell lines. […] Among 3-carboxylic acid derivatives (IX), the cytotoxicity was not remarkable when the m-position of 2-phenyl group was substituted by OCH3 group (IX-3, 7, 11). ED50 values were greater than 20 μg/mL. […] The antitumor activity was not good, if there was no substitution on the m-position of 2-phenyl group ([…]).

[2] = test system: Renal cancer (CAKI) cell line; experiment: Activity against HTCL replication, CAKI; assay type: cell-based, human; details: mean ED50
Method: as §1, with “The cell lines included human ovarian cancer (1A9), ileocecal carcinoma (HCT-8), lung carcinoma (A-549), glioblastoma (U-87-MG), bone (HOS), epidermoid carcinoma of the naynx (KB), P-gp-expressing epidermoid carcinoma of the nasopharynx (KB-VIN), and melanoma (SKMEL-2) cell line. The cytotoxic effects of each compound were obtained as EC50 values, which represent the molar drug concentrations required to cause 50% inhibition.” left out

bone (HOS) cell line = experiment: Activity against HTCL replication, HOS; assay type: cell-based, human; details: mean ED50
Method: as §1, with “The cell lines included human ovarian cancer (1A9), ileocecal carcinoma (HCT-8), lung carcinoma (A-549), glioblastoma (U-87-MG), bone (HOS), epidermoid carcinoma of the naynx (KB), P-gp-expressing epidermoid carcinoma of the nasopharynx (KB-VIN), and melanoma (SKMEL-2) cell line. The cytotoxic effects of each compound were obtained as EC50 values, which represent the molar drug concentrations required to cause 50% inhibition.” left out

[3] = test system: epidermoid carcinoma of the nasopharynx (KB) cell line; experiment: Activity against HTCL replication, KB; assay type: cell-based, human; details: mean ED50
Method: as §1, with “The cell lines included human ovarian cancer (1A9), ileocecal carcinoma (HCT-8), lung carcinoma (A-549), glioblastoma (U-87-MG), bone (HOS), epidermoid carcinoma of the naynx (KB), P-gp-expressing epidermoid carcinoma of the nasopharynx (KB-VIN), and melanoma (SKMEL-2) cell line. The cytotoxic effects of each compound were obtained as EC50 values, which represent the molar drug concentrations required to cause 50% inhibition.” left out

[4] = test system: Vincristine-resistant epidermoid carcinoma of the nasopharynx (KB-VIN) cell line; experiment: Activity against HTCL replication, KB-VIN; assay type: cell-based, human; details: mean ED50
Method: as §1, with “The cell lines included human ovarian cancer (1A9), ileocecal carcinoma (HCT-8), lung carcinoma (A-549), glioblastoma (U-87-MG), bone (HOS), epidermoid carcinoma of the naynx (KB), P-gp-expressing epidermoid carcinoma of the nasopharynx (KB-VIN), and melanoma (SKMEL-2) cell line. The cytotoxic effects of each compound were obtained as EC50 values, which represent the molar drug concentrations required to cause 50% inhibition.” left out

[5] = test system: glioblastoma (U87-MG) cell line; experiment: Activity against HTCL replication, U87-MG; assay type: cell-based, human; details: mean ED50
Method: as §1, with “The cell lines included human ovarian cancer (1A9), ileocecal carcinoma (HCT-8), lung carcinoma (A-549), glioblastoma (U-87-MG), bone (HOS), epidermoid carcinoma of the naynx (KB), P-gp-expressing epidermoid carcinoma of the nasopharynx (KB-VIN), and melanoma (SKMEL-2) cell line. The cytotoxic effects of each compound were obtained as EC50 values, which represent the molar drug concentrations required to cause 50% inhibition.” left out

[6] = test system: ileocecal carcinoma (HCT-8) cell line; experiment: Activity against HTCL replication, HCT-8; assay type: cell-based, human; details: mean ED50
Method: as §1, with “The cell lines included human ovarian cancer (1A9), ileocecal carcinoma (HCT-8), lung carcinoma (A-549), glioblastoma (U-87-MG), bone (HOS), epidermoid carcinoma of the naynx (KB), P-gp-expressing epidermoid carcinoma of the nasopharynx (KB-VIN), and melanoma (SKMEL-2) cell line. The cytotoxic effects of each compound were obtained as EC50 values, which represent the molar drug concentrations required to cause 50% inhibition.” left out

[7] = test system: human ovarian cancer (IA9) cell line; experiment: Activity against HTCL replication, IA9; assay type: cell-based
Method: as §1
Antitumor activity of compounds IX-8 and X-8 was further tested on the following 8 cancer cell lines: CAKI, HOS, KB, KB-VIN, SK-MEL-2, U87-MG, HCT-8 and IA9. […] It is worth mentioning that these two compounds were quite active against human ovarian cancer cells (IA9), which were known to have a high level of drug resistant P-glycoprotein. IC50 of compound IX-8 against these cancer cells is only 0.03 μg/mL. Thus, this compound is really worth developing, particular against drug resistant ovarian cancer.

IC50 ([7]; Homo sapiens, IA9, as worded in text, read-out: IC50 against human ovarian cancer cells (IA9)): 0.03 µg/mL (≈ 0.0958 µM)
Compound: COc1ccc2[nH]c(-c3cccc(F)c3)c(C(=O)O)c(=O)c2c1 [IX-8, 3′-Fluoro-6-methoxy-2-phenyl-4-quinolone-3-carboxylic acid]
IC50 [1]: 0.19 µg/mL (≈ 0.606 µM) | ED50 CAKI [2]: 10.0 µg/mL (≈ 31.9 µM) | ED50 HOS (bone (HOS) cell line): 0.14 µg/mL (≈ 0.447 µM) | ED50 KB [3]: 0.13 µg/mL (≈ 0.415 µM) | ED50 KB-VIN [4]: 0.13 µg/mL (≈ 0.415 µM) | ED50 U87-MG [5]: 1.50 µg/mL (≈ 4.79 µM) | ED50 HCT-8 [6]: 0.14 µg/mL (≈ 0.447 µM) | ED50 IA9 ([7]; ovarian cancer IA9, mean ED50): 0.03 µg/mL (≈ 0.0958 µM)
